Experimental data as given in paper PMC11111636 (EJNMMI Radiopharmacy and Chemistry, 2024).

Columns and labels:
[1] = Ex vivo biodistribution in H69-tumor bearing mice; settings: mouse, in vivo
Experimental: (§1) Six-week‐old female Balb/c nu/nu‐specific mice (Janvier Labs, Le Genest‐Saint‐Isle, France) were housed in individually ventilated cages (4 mice/cage). Upon arrival, mice were acclimated for one week, with access to food and water ad libitum. Mice were subcutaneously inoculated on the right shoulder with NCI-H69 cells (5 × 10^6 cells) suspended in 100 μL of 1/3 Matrigel (Corning Inc.; Corning, NY, USA) and 2/3 Hank’s balanced salt solution (Gibco; Paisley, UK). NCI-H69 xenografts were allowed to grow for 2 weeks.
(§2) At 3 selected time points (1, 4 and 24 h; n = 4) p.i., blood was collected via retro-orbital puncture under isoflurane/O2 anesthesia, after which the mice were sacrificed via cervical dislocation. The tumor and organs of interest (heart, lungs, liver, spleen, stomach, large intestine, small intestine, pancreas, kidneys, muscle, skin, bone) were excised, washed in PBS and blotted dry. […] To determine the total injected radioactivity per animal, a calibration curve with indium-111 was established using the gamma counter. The percentage of injected dose per gram (% ID/g) was determined for each tissue and corrected for both the injected activity and % ID present at the injection site (the tail). Then, the tumor and the organs were placed in a petri dish and ex vivo optical imaging was performed with the IVIS Spectrum system (Perkin Elmer, Waltham, MA, USA) using the following settings for all measurements: FOV 19.5 cm, medium binning, f2, 60 s exposure with an excitation/emission filter of 646 nm/662 nm. Living Image version 4.5.2 software (Perkin Elmer) was used to perform data analysis by drawing regions of interest around the organ/tissue to quantify the radiant efficiency {(photons/second/cm^2/steradian)/(μW/cm^2)}.

[2] = system: H69-xenograft Balb/c nu/nu mice; assay: Ex vivo biodistribution in H69-tumor bearing mice; settings: for Uptake in Tumor: i.v., n = 4
Experimental: as §1, §2

[3] = system: U2OS.SSTR2 cells; assay: Uptake/internalization studies in U2OS.SSTR2 cells; type: cell-based, human
Experimental: Cells were seeded in 6-well plates 24 h before the experiment (7 × 10^5 cells/well). […] The membrane-bound fraction was collected by incubating cells with an acid buffer (50 mM glycine, 100 mM NaCl, pH 2.8) for 10 min at rt. The internalized fraction was determined by lysing the cells with 1 M NaOH for 5 min at rt. Both fractions were measured in a gamma counter, and data were analyzed in GraphPad Prism v9 and expressed as percentage of added dose.

## C[C@@H](O)[C@H](NC(=O)[C@@H]1CSSC[C@H](NC(=O)[C@@H](Cc2ccccc2)NC(=O)CN2CCN(CC(=O)O)CCN(CC(=O)O)CCN(CC(=O)O)CC2)C(=O)N[C@@H](Cc2ccc(O)cc2)C(=O)N[C@H](Cc2c[nH]c3ccccc23)C(=O)N[C@@H](CCCCN)C(=O)N[C@@H]([C@@H](C)O)C(=O)N1)C(=O)O [[^111In]In-DOTA-TATE, metal not drawn, reference compound]
[1]; Uptake in Intestines, 4 h block (co-injected 50 nmol DOTA-TATE), n = 4
  tissue uptake at 4 h: 0.57 ± 0.35 %ID/g
[1]; Uptake in Kidneys, 4 h block (co-injected 50 nmol DOTA-TATE), n = 4
  tissue uptake at 4 h: 7.75 ± 1.03 %ID/g
[1]; Uptake in Liver, 4 h block (co-injected 50 nmol DOTA-TATE), n = 4
  tissue uptake at 4 h: 0.15 ± 0.08 %ID/g
[1]; Uptake in Skin, 4 h block (co-injected 50 nmol DOTA-TATE), n = 4
  tissue uptake at 4 h: 0.28 ± 0.13 %ID/g
[1]; Uptake in Stomach, 4 h block (co-injected 50 nmol DOTA-TATE), n = 4
  tissue uptake at 4 h: 0.1 ± 0.03 %ID/g
[1]; iv, Uptake in Blood, 1 h p.i., n = 4
  tissue uptake at 1 h: 0.41 ± 0.12 %ID/g
[1]; iv, Uptake in Blood, 24 h p.i., n = 4
  tissue uptake at 24 h: 0.04 ± 0.03 %ID/g
[1]; iv, Uptake in Bones, 4 h p.i., n = 4
  tissue uptake at 4 h: 0.13 ± 0.03 %ID/g
[1]; iv, Uptake in Bones, 24 h p.i., n = 4
  tissue uptake at 24 h: 0.14 ± 0.05 %ID/g
[1]; iv, Uptake in Heart, 1 h p.i., n = 4
  tissue uptake at 1 h: 0.16 ± 0.08 %ID/g
[1]; iv, Uptake in Heart, 4 h p.i., n = 4
  tissue uptake at 4 h: 0.04 %ID/g
[1]; iv, Uptake in Intestines, 1 h p.i., n = 4
  tissue uptake at 1 h: 0.74 ± 0.3 %ID/g
[1]; iv, Uptake in Intestines, 4 h p.i., n = 4
  tissue uptake at 4 h: 0.77 ± 0.24 %ID/g
[1]; iv, Uptake in Intestines, 24 h p.i., n = 4
  tissue uptake at 24 h: 0.13 ± 0.01 %ID/g
[1]; iv, Uptake in Kidneys, 1 h p.i., n = 4
  tissue uptake at 1 h: 12.2 ± 1.33 %ID/g
[1]; iv, Uptake in Kidneys, 4 h p.i., n = 4
  tissue uptake at 4 h: 10.6 ± 0.39 %ID/g
[1]; iv, Uptake in Kidneys, 24 h p.i., n = 4
  tissue uptake at 24 h: 6.93 ± 1.02 %ID/g
[1]; iv, Uptake in Liver, 1 h p.i., n = 4
  tissue uptake at 1 h: 0.21 ± 0.03 %ID/g
[1]; iv, Uptake in Liver, 4 h p.i., n = 4
  tissue uptake at 4 h: 0.16 ± 0.01 %ID/g
[1]; iv, Uptake in Liver, 24 h p.i., n = 4
  tissue uptake at 24 h: 0.08 ± 0.01 %ID/g
[1]; iv, Uptake in Lungs, 1 h p.i., n = 4
  tissue uptake at 1 h: 0.86 ± 0.09 %ID/g
[1]; iv, Uptake in Lungs, 4 h p.i., n = 4
  tissue uptake at 4 h: 0.52 ± 0.13 %ID/g
[1]; iv, Uptake in Muscle, 4 h p.i., n = 4
  tissue uptake at 4 h: 0.02 %ID/g
[1]; iv, Uptake in Muscle, 24 h p.i., n = 4
  tissue uptake at 24 h: 0.01 ± 0.01 %ID/g
[1]; iv, Uptake in Pancreas, 1 h p.i., n = 4
  tissue uptake at 1 h: 2.9 ± 0.6 %ID/g
[1]; iv, Uptake in Pancreas, 4 h p.i., n = 4
  tissue uptake at 4 h: 1.3 ± 0.1 %ID/g
[1]; iv, Uptake in Pancreas, 24 h p.i., n = 4
  tissue uptake at 24 h: 0.6 ± 0.05 %ID/g
[1]; iv, Uptake in Skin
  tissue uptake at 1 h: 0.49 ± 0.26 %ID/g
[1]; iv, Uptake in Skin, 4 h p.i., n = 4
  tissue uptake at 4 h: 0.29 ± 0.09 %ID/g
[1]; iv, Uptake in Skin, 24 h p.i., n = 4
  tissue uptake at 24 h: 0.13 ± 0.02 %ID/g
[1]; iv, Uptake in Spleen
  tissue uptake at 24 h: 0.11 ± 0.01 %ID/g
[1]; iv, Uptake in Spleen, 4 h p.i., n = 4
  tissue uptake at 4 h: 0.13 ± 0.02 %ID/g
[1]; iv, Uptake in Stomach, 1 h p.i., n = 4
  tissue uptake at 1 h: 1.84 ± 0.18 %ID/g
[1]; iv, Uptake in Stomach, 4 h p.i., n = 4
  tissue uptake at 4 h: 1.23 ± 0.16 %ID/g
[1]; iv, Uptake in Stomach, 24 h p.i., n = 4
  tissue uptake at 24 h: 0.51 ± 0.13 %ID/g
[1]; iv, Uptake in Tumor, 1 h p.i., n = 4
  tissue uptake at 1 h: ~5 %ID/g
[1]; iv, Uptake in Tumor, 4 h p.i., n = 4
  tissue uptake at 4 h: 5.47 ± 0.3 %ID/g
[1]; iv, Uptake in Tumor, 24 h p.i., n = 4
  tissue uptake at 24 h: ~3 %ID/g
[2]; 1 h p.i.
  Uptake in Tumor: 5.55 ± 1.31 % ID/g
[2]; 4 h p.i., compared to the unblocked group
  Tumor uptake reduction by co-injection of an excess of DOTA-TATE: 98%
[2]; 24 h p.i.
  Uptake in Tumor: 3.19 ± 0.29 % ID/g
[3]; 10^-9 M, 90 min, 37 °C
  Internalized fraction of radioactivity: 94%
[3]; 10^-9 M, 90 min, 37 °C, % of added dose per 1,000,000 cells, n = 3
  Total uptake: 46.22 ± 4.58 % AD
[3]; 50-fold excess DOTA-TATE
  Cell uptake with excess of unlabeled DOTA-TATE: almost completely blocked
